Measured values from ChEMBL document CHEMBL1149878, “Tetramic and tetronic acids: an update on new derivatives and biological aspects” (Bioorg Med Chem, 2008).
In brackets after ≈: the same amount, converted by molar mass. Where a SMILES comes first, the peptide text is derived from it. [ ]: non-standard residue; d: D form. The star is where a group is joined. X1 = COC1=CC(=O)N(C(=O)[C@@H](O*)C(C)C)[C@H]1Cc1ccccc1; NMe2Val = CC(C)[C@@H](C(=O)*)N(C)C; NMeV = CN[C@H](C(=O)O)C(C)C

Columns and labels:
[1] = Inhibition of Escherichia coli H560 DNA gyrase
[2] = target: Glutamate NMDA receptor (Rattus norvegicus) (UniProt P35439+Q00959+Q00960+Q00961+Q62645+Q8VHN2+Q9R1M7); assay: Antagonist activity at NMDA receptor in rat cortex assessed as inhibition of NMDA-induced depolarization; type: functional, tissue-based
[3] = target: Glutamate NMDA receptor; assay: Displacement of [3H]L689560 from glycine site of rat NMDA receptor; type: protein-complex assay
[4] = Inhibition of HCV NS5B polymerase; set-up: species or system Hepacivirus hominis
[5] = system: Escherichia coli; assay: Antimicrobial activity against Escherichia coli; type: functional
[6] = system: Staphylococcus aureus; assay: Antimicrobial activity against Staphylococcus aureus; type: functional
[7] = Inhibition of Escherichia coli MurB
[8] = target: Beta-secretase 1 (Homo sapiens, UniProt P56817); assay: Inhibition of BACE1 by FRET assay
[9] = system: Staphylococcus aureus; assay: Growth inhibition of multidrug resistant Staphylococcus aureus; type: functional, organism-based
[10] = system: Enterococcus faecalis; assay: Growth inhibition of multidrug resistant Enterococcus faecalis; type: functional, organism-based
[11] = system: HeLa; assay: Growth inhibition of human HeLa cells; type: functional, cell-based
[12] = target: M-phase inducer phosphatase 2 (Homo sapiens, UniProt P30305); assay: Inhibition of cdc25B
[13] = Selectivity for cdc25B over VHR
[14] = system: HCT-15; assay: Cytotoxicity against human HCT15 cells; type: functional, cell-based
[15] = system: A549; assay: Cytotoxicity against human A549 cells; type: functional, cell-based
[16] = system: SK-OV-3; assay: Cytotoxicity against human SK-OV-3 cells; type: functional, cell-based
[17] = system: SK-MEL-2; assay: Cytotoxicity against human SK-Mel-2 cells; type: functional, cell-based
[18] = system: XF498; assay: Cytotoxicity against human XF498 cells; type: functional, cell-based
[19] = system: Bifidobacterium longum; assay: Antimicrobial activity against Bifidobacterium longum; type: functional
[20] = system: Streptococcus constellatus; assay: Antimicrobial activity against Streptococcus constellatus; type: functional
[21] = system: Phocaeicola vulgatus; assay: Antimicrobial activity against Bacteroides vulgatus; type: functional
[22] = system: Bacteroides sp.; assay: Antimicrobial activity against Bacteroides melaninogenicus; type: functional
[23] = system: Fusobacterium nucleatum; assay: Antimicrobial activity against Fusobacterium nucleatum; type: functional
[24] = system: Eubacterium limosum; assay: Antimicrobial activity against Eubacterium limosum; type: functional
[25] = system: Bacteroides fragilis; assay: Antimicrobial activity against Bacteroides fragilis; type: functional
[26] = system: Fusobacterium necrophorum; assay: Antimicrobial activity against Fusobacterium necrophorum; type: functional
[27] = system: Clostridioides difficile; assay: Antimicrobial activity against Clostridium difficile; type: functional
[28] = system: Enterococcus; assay: Growth inhibition of multidrug resistant Enterococcus; type: functional
[29] = Toxicity in rat; type: organism-based; details: in vivo, read-out: LC50 (the source's name)
[30] = system: B16; assay: Cytotoxicity against mouse B16 cells; type: functional, cell-based
[31] = system: Plasmodium falciparum; assay: Antiplasmodial activity against Plasmodium falciparum after 72 hrs; type: functional, organism-based
[32] = target: Human immunodeficiency virus type 1 integrase (Human immunodeficiency virus 1, UniProt Q7ZJM1); assay: Inhibition of HIV1 integrase strand transfer activity
[33] = system: L929; assay: Growth inhibition of mouse L929 cells; type: cell-based
[34] = system: A498; assay: Growth inhibition of human A498 cells; type: functional, cell-based
[35] = Growth inhibition of human KB3-1 cells; type: functional, cell-based; details: KB 3-1
[36] = system: HL-60; assay: Growth inhibition of human HL60 cells by MTT assay after 24 hrs; type: functional, cell-based; details: HL-60, 24 h
[37] = system: A549; assay: Growth inhibition of human A549 cells by MTT assay after 24 hrs; type: functional, cell-based; details: A549, 24 h
[38] = system: P388; assay: Growth inhibition of mouse P388 cells by MTT assay after 24 hrs; type: functional, cell-based; details: P388, 24 h
[39] = system: Bel-7402; assay: Growth inhibition of human Bel7402 cells by MTT assay after 24 hrs; type: functional, cell-based; details: Bel-7402, 24 h
[40] = system: Streptococcus equinus; assay: Antimicrobial activity against Streptococcus bovis A5169; type: functional
[41] = system: Streptococcus pyogenes; assay: Antimicrobial activity against Streptococcus pyogenes 930; type: functional
[42] = system: Legionella; assay: Antimicrobial activity against Legionella; type: functional
[43] = system: Enterococcus; assay: Antimicrobial activity against Enterococcus; type: functional
[44] = system: Staphylococcus aureus; assay: Antimicrobial activity against methicillin-resistant Staphylococcus aureus F597; type: functional
[45] = system: Enterococcus faecalis; assay: Antimicrobial activity against Enterococcus faecalis; type: functional

Chain of Beta-secretase 1 (P56817 whole entry): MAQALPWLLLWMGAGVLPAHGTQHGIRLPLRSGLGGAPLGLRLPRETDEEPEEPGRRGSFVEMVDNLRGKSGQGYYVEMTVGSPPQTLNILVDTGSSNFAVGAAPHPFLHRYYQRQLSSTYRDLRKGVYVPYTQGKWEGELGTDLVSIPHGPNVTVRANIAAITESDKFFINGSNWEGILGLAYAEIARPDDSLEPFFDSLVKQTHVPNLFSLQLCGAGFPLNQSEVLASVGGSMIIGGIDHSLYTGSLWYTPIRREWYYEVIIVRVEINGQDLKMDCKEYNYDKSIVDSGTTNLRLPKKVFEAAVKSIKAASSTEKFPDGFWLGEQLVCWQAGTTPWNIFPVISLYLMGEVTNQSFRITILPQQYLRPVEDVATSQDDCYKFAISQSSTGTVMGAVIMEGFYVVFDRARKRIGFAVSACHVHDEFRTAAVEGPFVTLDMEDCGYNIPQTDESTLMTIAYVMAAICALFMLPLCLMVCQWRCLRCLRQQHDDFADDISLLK
Chain of M-phase inducer phosphatase 2 (P30305 whole entry): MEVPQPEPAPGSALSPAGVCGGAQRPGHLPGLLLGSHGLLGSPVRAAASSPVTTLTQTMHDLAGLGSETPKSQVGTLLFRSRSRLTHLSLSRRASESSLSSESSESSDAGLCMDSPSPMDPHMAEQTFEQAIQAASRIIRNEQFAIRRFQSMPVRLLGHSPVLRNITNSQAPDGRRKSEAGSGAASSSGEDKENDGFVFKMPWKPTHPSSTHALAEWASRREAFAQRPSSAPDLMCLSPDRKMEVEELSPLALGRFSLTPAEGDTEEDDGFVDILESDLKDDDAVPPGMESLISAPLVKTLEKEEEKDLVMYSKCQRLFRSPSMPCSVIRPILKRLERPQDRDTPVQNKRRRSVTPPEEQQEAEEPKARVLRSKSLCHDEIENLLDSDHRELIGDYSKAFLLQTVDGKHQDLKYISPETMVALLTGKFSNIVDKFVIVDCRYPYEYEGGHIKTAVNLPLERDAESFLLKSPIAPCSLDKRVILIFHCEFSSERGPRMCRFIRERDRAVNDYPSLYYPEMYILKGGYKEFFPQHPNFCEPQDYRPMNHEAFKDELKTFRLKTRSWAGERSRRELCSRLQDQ
Chain of Human immunodeficiency virus type 1 integrase (Q7ZJM1 whole entry): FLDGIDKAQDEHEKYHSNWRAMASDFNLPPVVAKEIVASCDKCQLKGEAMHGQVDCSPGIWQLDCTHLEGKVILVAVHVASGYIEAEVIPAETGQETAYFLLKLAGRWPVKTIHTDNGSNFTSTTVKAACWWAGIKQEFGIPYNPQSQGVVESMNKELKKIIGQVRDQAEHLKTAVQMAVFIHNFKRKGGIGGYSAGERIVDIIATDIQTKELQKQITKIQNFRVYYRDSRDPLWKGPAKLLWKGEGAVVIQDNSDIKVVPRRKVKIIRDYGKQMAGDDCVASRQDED

CC(/C=C/C(O)=C1\C(=O)CNC1=O)=C\c1ccc2ccccc2c1
IC50 [1]: 3.5 µg/mL (≈ 11 µM)

CC(/C=C/C(=O)C1=C(O)CN(C)C1=O)=C\c1ccc2ccccc2c1
IC50 [1]: 10.3 µg/mL (≈ 30.9 µM)

CC/C=C1\NC(=O)C(c2cccc(Oc3ccccc3)c2)=C1O
Kb [2]: 6.15 µM | IC50 [3]: 0.7 µM

CC(C)(C)CN1C(=O)C(C2=NS(=O)(=O)c3ccccc3N2)=C(O)[C@@H]1C(C)(C)C
IC50 [4]: 0.0017 µM

O=C1O/C(=C\c2cccc3ccccc23)C(O)=C1c1cc(Cl)cc(Cl)c1
MIC [5]: 1 µg/mL (≈ 2.61 µM) | MIC [6]: 1 µg/mL (≈ 2.61 µM) | IC50 [7]: 21 µM | Kd [7]: 0.04 µM

CCC(C)C1NC(=O)C(SCc2cccc(C(F)(F)F)c2)=C1O (stereo unspecified)
IC50 [8]: 60 µM

C[C@@H]1CC[C@@H]2[C@H](C=C[C@@H](C)[C@@]2(C)/C(O)=C2/C(=O)[C@H]([C@H](C)O)N(C)C2=O)C1
IC50 [9]: 10 µg/mL (≈ 27.7 µM) | IC50 [10]: 20 µg/mL (≈ 55.3 µM) | IC90 [11]: 7.1 µg/mL (≈ 19.6 µM)

CCCCCCCCCCCCCCCC(=O)C1=C(O)[C@@H](COC(=O)N=C=NC(=O)OCC)OC1=O
IC50 [12]: 0.4 µM | Selectivity ratio [13]: 30

C=C1C=C(CCC/C(C)=C/C=C/[C@H](C)CC/C=C(/C)CC2OC(=O)C(C)=C2O)C(=O)N1CCC(C)C (stereo partly drawn) [(R)-SARCOTRINE A]
IC50 [14]: 3.4 µg/mL (≈ 6.86 µM) | IC50 [15]: 3.4 µg/mL (≈ 6.86 µM) | IC50 [16]: 3.4 µg/mL (≈ 6.86 µM) | IC50 [17]: 3.4 µg/mL (≈ 6.86 µM) | IC50 [18]: 3.4 µg/mL (≈ 6.86 µM)

C=C1C=C(CCC/C(C)=C/C=C/[C@@H](C)CC/C=C(/C)CC2OC(=O)C(C)=C2O)C(=O)N1CCC(C)C (stereo partly drawn) [(S)-SARCOTRINE A]
IC50 [14]: 3.4 µg/mL (≈ 6.86 µM) | IC50 [15]: 3.4 µg/mL (≈ 6.86 µM) | IC50 [16]: 3.4 µg/mL (≈ 6.86 µM) | IC50 [17]: 3.4 µg/mL (≈ 6.86 µM) | IC50 [18]: 3.4 µg/mL (≈ 6.86 µM)

C=C1OC(=O)/C(=C(\O)CCCCCCCCC)C1=O [AGGLOMERIN A]
MIC [19]: 6.25 µg/mL (≈ 23.5 µM) | MIC [20]: 3.13 µg/mL (≈ 11.8 µM) | MIC [21]: 3.13 µg/mL (≈ 11.8 µM) | MIC [22]: 6.25 µg/mL (≈ 23.5 µM) | MIC [23]: 6.25 µg/mL (≈ 23.5 µM) | MIC [24]: 6.25 µg/mL (≈ 23.5 µM) | MIC [25]: 3.13 µg/mL (≈ 11.8 µM) | MIC [26]: 6.25 µg/mL (≈ 23.5 µM) | MIC [27]: 3.13 µg/mL (≈ 11.8 µM)

C/C=C/C=C/[C@@H]1C(C)=C[C@@H]2C[C@H](C)CC[C@H]2[C@]1(C)/C(O)=C1\C(=O)N[C@@H]([C@H](C)O)C1=O [CONIOSETIN]
MIC [9]: 0.3 µg/mL (≈ 0.725 µM) | MIC [28]: 2.5 µg/mL (≈ 6.05 µM)

CC(=O)C1=C(O)[C@@H]2[C@H]3c4c[nH]c5cccc(c45)C[C@H]3C(C)(C)N2C1=O [CYCLOPIAZONIC ACID]
LD50 [29]: 30 mg/kg

C[C@H]1C=CC2C1C[C@H]1/C=C/CC/C(O)=C3/C(=O)N[C@H](C3=O)[C@@H](O)CCNC(=O)/C=C/C=C\C[C@H]21 (stereo partly specified) [CYLINDRAMIDE]
IC50 [30]: 0.8 µg/mL (≈ 1.71 µM)

COC1=CC(=O)N(C(=O)[C@@H](OC(=O)[C@@H]2CCCN2C(=O)[C@@H]2CCCN2C(=O)[C@H](C(C)C)N(C)C(=O)[C@@H](NC(=O)[C@H](C(C)C)N(C)C)C(C)C)C(C)C)[C@H]1Cc1ccccc1 [DOLASTATIN 15] (NMe2Val-V[NMeV]PP-X1)
IC50 [31]: 0.2 µM

CC1=C[C@@H]2CC[C@@H](O)[C@H](C)[C@@H]2[C@@H](C(=O)C2=C(O)C(O)NC2=O)[C@@H]1C[C@H]1O[C@@]2(CC[C@H](C)[C@@H](c3cc(O)cc(O)c3)O2)[C@@H](C)C[C@@H]1C (stereo partly specified) [INTEGRAMYCIN]
IC50 [32]: 4 µM

CCCCCCCCC(C)CC/C(O)=C1\C(=O)[C@H](C)N(C)C1=O (stereo partly specified) [MELOPHLIN B]
IC50 [33]: < 10 µM | IC50 [34]: < 10 µM | IC50 [35]: < 10 µM | IC50 [11]: < 10 µM

CCCCCCCC(C)CCC/C(O)=C1\C(=O)C(C)N(C)C1=O (stereo unspecified) [MELOPHLIN C]
IC50 [33]: < 10 µM | IC50 [34]: < 10 µM | IC50 [35]: < 10 µM | IC50 [11]: < 10 µM

CC(C)CCCCCCCCCCC/C(O)=C1\C(=O)C(C)N(C)C1=O (stereo unspecified) [MELOPHLIN Q]
IC50 [34]: 3.4 µM

CCC(C)CCCCCCCCCC/C(O)=C1\C(=O)C(C)N(C)C1=O (stereo unspecified) [MELOPHLIN R]
IC50 [33]: < 10 µM | IC50 [34]: < 10 µM | IC50 [35]: < 10 µM | IC50 [11]: < 10 µM

CCn1cc(C(=O)O)c(=O)c2cc(F)c(N3CCNCC3)cc21 [NORFLOXACIN]
IC50 [1]: 1 µg/mL (≈ 3.13 µM)

CCCCCCC(C)/C(O)=C1\C(=O)[C@H]([C@H](C)O)N(C)C1=O (stereo partly specified) [PENICILLENOL A1]
IC50 [36]: 0.76 µM

CCCCCCC(C)/C(O)=C1\C(=O)[C@@H]([C@@H](C)O)N(C)C1=O (stereo partly specified) [PENICILLENOL A2]
IC50 [37]: > 100 µM | IC50 [38]: > 100 µM | IC50 [39]: > 100 µM

C/C=C1/C(=O)/C(=C(/O)C(C)CCCCCC)C(=O)N1C (stereo unspecified) [PENICILLENOL B1]
IC50 [37]: > 100 µM | IC50 [36]: 3.2 µM | IC50 [38]: > 100 µM | IC50 [39]: > 100 µM

C/C=C1\C(=O)/C(=C(/O)C(C)CCCCCC)C(=O)N1C (stereo unspecified) [PENICILLENOL B2]
IC50 [37]: > 100 µM | IC50 [38]: > 100 µM | IC50 [39]: > 100 µM

C/C=C/CCCC(C)/C(O)=C1\C(=O)[C@H]([C@H](C)O)N(C)C1=O (stereo partly specified) [PENICILLENOL C1]
IC50 [37]: > 100 µM | IC50 [36]: > 100 µM | IC50 [38]: > 100 µM | IC50 [39]: > 100 µM

C/C=C/CCCC(C)/C(O)=C1\C(=O)[C@@H]([C@@H](C)O)N(C)C1=O (stereo partly specified) [PENICILLENOL C2]
IC50 [37]: > 100 µM | IC50 [36]: > 100 µM | IC50 [38]: > 100 µM | IC50 [39]: > 100 µM

CC(/C=C/C(O)=C1/C(=O)CNC1=O)=C\[C@@H](C)[C@H]1O[C@@]2(C)O[C@@H](C=C[C@@]23CO3)[C@H]1C [TIRANDALYDIGIN]
MIC [40]: 12.5 µg/mL (≈ 31.1 µM) | MIC [25]: 0.5 µg/mL (≈ 1.25 µM) | MIC [41]: 3.1 µg/mL (≈ 7.72 µM) | MIC [42]: > 32 µg/mL | MIC [43]: > 16 µg/mL

CC1=C[C@H]2[C@H](O)CC[C@@](C)(/C(O)=C3/C(=O)CNC3=O)[C@H]2C[C@@H]1CCC(C)C(O)/C(C)=C/CC(O)/C=C/C(C)C(O)/C=C/CC(O)/C=C/CC(O)CC1CCCN1C(=N)N (stereo partly specified) [TPU-0037 A]
MIC [44]: 3.13 µg/mL (≈ 3.79 µM)

C/C(=C\CC(O)CC(O)CCC(C)C(O)C(C)C(O)CCCC(O)C(C)C(O)/C(C)=C/C(C)C(=O)/C(C)=C/C(O)C(O)CC(O)CC(OC1OC(C)C(O)C(N)C1O)C(C)CCC(O)CC(O)CCC(C)C(O)C(C)C(O)C(C)C)C(=O)C1=C(O)/C(=C/C(C)C)N(C)C1=O (stereo unspecified) [VANCORESMYCIN]
MIC [6]: < 0.04 µg/mL | MIC [45]: 0.3 µg/mL (≈ 0.223 µM)
